Results from patent EP4144350B1, “TREATMENT OR PREVENTION OF VASCULAR MALFORMATION” (Universitätsmedizin Greifswald, priority 2021, dated 2023).

Tests used:
Assay type in all cases: cell-based, human
[1] = system: CCM3^-/- CI-huVECs in co-culture with CCM3^+/+ CI-huVECs; assay: Spike-in co-culture assay / apoptosis compound library screening: CCM3 knockout allele frequency by amplicon deep sequencing; details: for Knockout allele frequencies: 10 µM of each compound, six days, added 5 h and 3 days after seeding, DMSO-treated co-culture controls 33.5 %
Protocol: Clonally expanded CI-huVEC lines with biallelic loss-of-function variants in the first coding exon of CCM3 have been described before or were established according to a published CRISPR/Cas9 genome editing protocol. Blood outgrowth endothelial cells (BOECs) were cultured in EGM-2 medium (Lonza, Basel, Switzerland) supplemented with 18 % FCS. With the approval of the local ethics committee (University Medicine Greifswald, Germany; No.: BB 047/14a), CCM1^-/- BOECs had been established previously from CCM1^+/- BOECs of a CCM1 mutation carrier with CRISPR/Cas9 genome editing. Mutant and wild-type ECs were co-cultured in 96-well plates under standard culture conditions with the indicated mutant-to-wild-type ratios. 2500 cells were seeded per well.
An apoptosis compound library with 189 small molecules that target apoptosis, survival and proliferation was used in a high throughput screening approach (HY-L003[HY-LD-000001651]; MedChem Express, Monmouth Junction, NJ, USA). Co-cultures were treated with 10 µM of each substrate for six days. Compounds were added 5 h and 3 days after cell seeding.
NSC59984 (IUPAC: (2E)-1-(4-Methyl-1-piperazinyl)-3-(5-nitro-2-furyl)-2-propen-1-one, HY19726, MedChem Express), was used for individual experiments with the indicated concentrations.
The fraction of mutant alleles in co-culture were analysed by amplicon deep sequencing or T7EI cleavage assay. In brief, genomic target regions were first amplified by PCR. For T7E1 cleavage assays, heteroduplexes were formed and digested with T7EI enzyme (New England Biolabs, Frankfurt am Main, Germany). Cleavage products were visualised by gel electrophoresis and analysed with the Image Lab software (v6.0, Bio-Rad, Hercules, CA, USA). For NGS analysis, sequencing adapters and individual barcodes were introduced in a second round of PCR [7]. Sequencing libraries were pooled and sequenced on a MiSeq instrument with 2 x 150 cycles (Illumina, San Diego, CA, USA). The data were analysed with the SeqNext software (JSI Medical Systems, Ettenheim, Germany).

CI-huVECs = assay: Bright-field microscopy of EC morphology after compound treatment; details: library screening follow-up (Fig. 14)
[2] = system: CCM3^+/+ and CCM3^-/- CI-huVECs; assay: Cell viability after compound treatment; details: for Cell viability differences between CCM3^+/+ and CCM3^-/- CI-huVECs: 72 h after treatment (Fig. 15)
caspase-3 = assay: Caspase-3 activity assay
Protocol: The proliferation rate of mutant and wild-type ECs in monoculture was quantified with the CyQuant® Cell Proliferation Assay Kit (C7026, Thermo Fisher Scientific). To discriminate the proliferation rates of CCM3^+/+ and CCM3^-/- CI-huVEC in co-culture, the CyQuant® Cell Proliferation Assay results were combined with mutant allele frequencies that had been determined by amplicon deep sequencing. To analyse their sensitivity to apoptosis, mutant and wild-type ECs were seeded in 96-well plates with 15.000 cells per well, and treated with staurosporine (S440, Sigma-Aldrich, St. Louis, MO, USA) 24 h later. The Caspase-3 DEVD-R110 Fluorometric HTS Assay Kit (30009, Biotium, Fremont, CA, USA), the Cell Meter™ Caspase 8 Activity Apoptosis Assay Kit (22798, AAT Bioquest, Sunnyvale, CA, USA), and the Cell Meter™ Caspase 9 Activity Apoptosis Assay Kit (22799, AAT Bioquest) were used following the manufacturer's instructions.

Caspase-3 activities (caspase-3; treatment for 24 h, CCM3^+/+ and CCM3^-/- CI-huVECs (Fig. 16)) | Structure (SMILES) | Knockout allele frequencies [1] | EC morphology / endothelial phenotype (CI-huVECs) | Cell viability differences between CCM3^+/+ and CCM3^-/- CI-huVECs [2] | Cell viability ([2]; Fig. 15) | Apoptosis / caspase-3 activation (caspase-3; Fig. 16) | Reversal of the NSC59984 (10 µM) effect on clonal expansion of CCM3^-/- cells ([1]; UC2288 1 to 10 µM together with NSC59984 10 µM (Fig. 28))
did not increase caspase-3 activities | C=C1C(=O)O[C@@H]2C[C@@]3(C)CCCC(=C)[C@@H]3C[C@H]12 [isoalantolactone, reference compound] | 7.7% | induced an abnormal endothelial phenotype and significant cell death | No cell viability differences |  |  | 
 | CC(C)S(=O)(=O)c1ccc2nccc(Nc3ccc4scnc4c3)c2c1 [GSK-872] | 65.1% | more compact EC morphology | increased the viability of CCM3^-/- CI-huVECs | increased cell viability at low concentrations | induced moderate caspase-3 activation | 
 | O=C(Nc1ccc(Cl)c(C(F)(F)F)c1)NC1CCC(Oc2ccc(C(F)(F)F)cn2)CC1 (stereo not shown) [UC2288, reference compound] |  |  |  |  |  | could not be reversed
